Results as given in paper PMC3961306, “Comparison of the Cancer Gene Targeting and Biochemical Selectivities of All Targeted Kinase Inhibitors Approved for Clinical Use” (PLoS ONE, 2014).

Key:
Assay in all cases: Kinase profiling in a biochemical assay panel (mobility shift assays and ELISA), %-inhibition at 1 μM; selectivity entropy
[1] = target: T1, panel of more than 300 wild-type and mutant kinases (313 kinase panel) (Homo sapiens, UniProt Q96KB5)
T1 sequence (Q96KB5 1-322): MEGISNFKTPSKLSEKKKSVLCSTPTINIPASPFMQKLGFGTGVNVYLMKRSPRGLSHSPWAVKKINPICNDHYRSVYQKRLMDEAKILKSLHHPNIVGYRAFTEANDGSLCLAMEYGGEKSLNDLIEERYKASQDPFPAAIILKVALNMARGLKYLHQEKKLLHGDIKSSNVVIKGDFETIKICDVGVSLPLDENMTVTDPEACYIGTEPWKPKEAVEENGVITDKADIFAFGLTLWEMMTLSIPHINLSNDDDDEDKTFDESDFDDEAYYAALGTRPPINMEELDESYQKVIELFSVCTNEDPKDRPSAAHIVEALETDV

[2] = target: T2, panel of more than 300 wild-type and mutant kinases (313 kinase panel) (Homo sapiens, UniProt O15146)
T2 sequence (O15146 24-869): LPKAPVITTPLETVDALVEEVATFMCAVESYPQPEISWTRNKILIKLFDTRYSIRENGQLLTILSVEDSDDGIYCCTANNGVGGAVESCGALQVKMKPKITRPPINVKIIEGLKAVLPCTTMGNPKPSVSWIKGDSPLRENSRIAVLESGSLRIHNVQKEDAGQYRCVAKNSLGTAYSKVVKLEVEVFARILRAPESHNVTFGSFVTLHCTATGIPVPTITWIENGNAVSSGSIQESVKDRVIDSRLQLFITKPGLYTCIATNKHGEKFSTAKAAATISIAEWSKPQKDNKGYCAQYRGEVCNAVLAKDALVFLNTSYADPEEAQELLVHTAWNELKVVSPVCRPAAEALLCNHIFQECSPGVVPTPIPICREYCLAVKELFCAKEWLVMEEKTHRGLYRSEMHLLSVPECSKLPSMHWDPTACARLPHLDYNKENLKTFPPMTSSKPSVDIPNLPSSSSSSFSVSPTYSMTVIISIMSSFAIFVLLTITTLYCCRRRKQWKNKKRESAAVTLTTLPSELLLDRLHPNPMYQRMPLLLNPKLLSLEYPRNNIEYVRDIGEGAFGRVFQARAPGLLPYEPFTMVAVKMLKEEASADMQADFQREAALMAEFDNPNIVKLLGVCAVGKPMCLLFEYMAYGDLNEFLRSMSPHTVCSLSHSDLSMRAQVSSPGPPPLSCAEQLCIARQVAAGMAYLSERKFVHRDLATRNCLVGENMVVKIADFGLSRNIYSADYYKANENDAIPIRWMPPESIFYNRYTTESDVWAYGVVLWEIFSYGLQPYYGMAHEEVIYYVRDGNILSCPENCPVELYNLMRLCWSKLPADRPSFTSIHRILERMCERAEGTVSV

[3] = target: panel of more than 300 wild-type and mutant kinases (313 kinase panel) (Homo sapiens, UniProt P06213)
[4] = target: panel of more than 300 wild-type and mutant kinases (313 kinase panel) (Homo sapiens, UniProt P10721, D816V)
[5] = target: panel of more than 300 wild-type and mutant kinases (313 kinase panel) (Homo sapiens, UniProt P16234)
[6] = target: panel of more than 300 wild-type and mutant kinases (313 kinase panel) (Homo sapiens, UniProt P19525)
[7] = target: panel of more than 300 wild-type and mutant kinases (313 kinase panel) (Homo sapiens, UniProt Q86Z02)
[8] = target: panel of more than 300 wild-type and mutant kinases (313 kinase panel) (Homo sapiens, UniProt P22607)
[9] = target: panel of more than 300 wild-type and mutant kinases (313 kinase panel) (Homo sapiens, UniProt P49137)
[10] = target: panel of more than 300 wild-type and mutant kinases (313 kinase panel) (Homo sapiens, UniProt Q9H2G2)
[11] = kinase KIT(D816V), compound at 1 μM
[12] = kinase MAPKAPK2, compound at 1 μM

Row | Structure (SMILES) | %-inhibition of PBK ([1]; kinase PBK, 1 μM) [%] | %-inhibition of MUSK ([2]; kinase MUSK, 1 μM) [%] | %-inhibition of INSR ([3]; kinase INSR, compound at 1 μM) [%] | %-inhibition of KIT(D816V) [4, 11] [%] | %-inhibition of PDGFRα ([5]; kinase PDGFRα, 1 μM) [%] | %-inhibition of PKR ([6]; kinase PKR, 1 μM) [%] | %-inhibition of HIPK1 ([7]; kinase HIPK1, compound at 1 μM) [%] | %-inhibition of FGFR3 ([8]; kinase FGFR3, compound at 1 μM) [%] | %-inhibition of MAPKAPK2 [9, 12] [%] | %-inhibition of SLK ([10]; kinase SLK, 1 μM) [%] | %-inhibition of MUSK ([2]; 1 µM) [%] | %-inhibition of INSR ([3]; 1 µM) [%] | %-inhibition of KIT(D816V) ([4]; 1 µM) [%] | %-inhibition of PDGFRα ([5]; 1 µM) [%] | %-inhibition of PKR ([6]; 1 µM) [%] | %-inhibition of FGFR3 ([8]; 1 µM) [%] | %-inhibition of MAPKAPK2 ([9]; 1 µM) [%] | %-inhibition of HIPK1 ([7]; 1 µM) [%] | %-inhibition of PBK ([1]; 1 µM) [%] | %-inhibition of SLK ([10]; 1 µM) [%]
1 | CN(C)C/C=C/C(=O)Nc1cc2c(Nc3ccc(F)c(Cl)c3)ncnc2cc1O[C@H]1CCOC1 [afatinib] | -3 |  |  |  |  |  |  |  |  |  |  |  |  |  |  |  |  |  |  | 
2 | COc1cc(Nc2c(C#N)cnc3cc(OCCCN4CCN(C)CC4)c(OC)cc23)c(Cl)cc1Cl [bosutinib] | -24 | 58 | 65 | 78 | 77 | -13 | 3.32 |  |  |  |  |  |  |  |  |  |  |  |  | 
3 | COc1cc2nccc(Oc3ccc(NC(=O)C4(C(=O)Nc5ccc(F)cc5)CC4)cc3)c2cc1OC [cabozantinib] | -4.29 | 95 | 35 | 23 | 100 | -4.3 | 31 | 8 | -17 | 52 |  |  |  |  |  |  |  |  |  | 
4 | C[C@@H](Oc1cc(-c2cnn(C3CCNCC3)c2)cnc1N)c1c(Cl)ccc(F)c1Cl [crizotinib] | -14 | 99 |  | 21 | 49 | 6 | -7 | 43 | -17 |  |  |  |  |  |  |  |  |  |  | 
5 | CC(C)(C)c1nc(-c2cccc(NS(=O)(=O)c3c(F)cccc3F)c2F)c(-c2ccnc(N)n2)s1 [dabrafenib] | 12 | 16 | 7.51 | 9 | 63 |  | 70 | 4.27 |  | 12 |  |  |  |  |  |  |  |  |  | 
6 | Cc1nc(Nc2ncc(C(=O)Nc3c(C)cccc3Cl)s2)cc(N2CCN(CCO)CC2)n1 [dasatinib] |  |  |  |  |  | 3 | 2.64 |  |  |  |  |  |  |  |  |  |  |  |  | 
7 | C#Cc1cccc(Nc2ncnc3cc(OCCOC)c(OCCOC)cc23)c1 [erlotinib] |  |  |  |  |  |  |  |  |  |  | 12 | 4 | 32 | 52 | 22 | 63 | 4.42 | 12 | 4.3 | 89
8 | CO[C@H]1C[C@@H]2CC[C@@H](C)[C@@](O)(O2)C(=O)C(=O)N2CCCC[C@H]2C(=O)O[C@H]([C@H](C)C[C@@H]2CC[C@@H](OCCO)[C@H](OC)C2)CC(=O)[C@H](C)/C=C(\C)[C@@H](O)[C@@H](OC)C(=O)[C@H](C)C[C@H](C)/C=C/C=C/C=C/1C [everolimus] | -10 | -7 | -3.77 | -4.44 | 1.15 | -8.45 | -6 | -9 | -18 | -2.67 |  |  |  |  |  |  |  |  |  | 
9 | O=S(=O)(c1cccc2cnccc12)N1CCCNCC1 [fasudil] | -2.33 | 2 | -11 | 4.75 | 16 | -4.39 | -3.31 | -2 | -13 | 4.5 |  |  |  |  |  |  |  |  |  | 
10 | CS(=O)(=O)CCNCc1ccc(-c2ccc3ncnc(Nc4ccc(OCc5cccc(F)c5)c(Cl)c4)c3c2)o1 [lapatinib] | 6 | 4.38 | -1.26 |  |  | -0.192 |  | 0.327 |  |  |  |  | -3 | 40 |  |  |  |  |  | 10
11 | Cc1cn(-c2cc(NC(=O)c3ccc(C)c(Nc4nccc(-c5cccnc5)n4)c3)cc(C(F)(F)F)c2)cn1 [nilotinib] | -8 |  | -8 |  |  |  | 14 | -11 | 2.56 | -41 | 42 |  | 43 | 103 | 0 |  |  |  |  | 
12 | Cc1ccc(Nc2nccc(N(C)c3ccc4c(C)n(C)nc4c3)n2)cc1S(N)(=O)=O [pazopanib] | -5 | 9 | 22 | 87 |  |  | 10 |  | -2.44 | 28 |  |  |  |  |  |  |  |  |  | 
13 | Cc1ccc(C(=O)Nc2ccc(CN3CCN(C)CC3)c(C(F)(F)F)c2)cc1C#Cc1cnc2cccnn12 [ponatinib] | -14 | 100 | 43 |  | 103 | 19 | 22 | 101 |  |  |  |  |  |  |  |  |  |  |  | 
14 | CNC(=O)c1cc(Oc2ccc(NC(=O)Nc3ccc(Cl)c(C(F)(F)F)c3)c(F)c2)ccn1 [regorafenib] | -29 | 80 | -2.79 | 40 | 102 | -4.48 | 47 | 97 | -21 | 29 |  |  |  |  |  |  |  |  |  | 
15 | N#CC[C@H](C1CCCC1)n1cc(-c2ncnc3[nH]ccc23)cn1 [ruxolitinib] | -19 | 56 | 0.837 | 36 | 35 | -6 | 3 | 15 | -18 | 7 |  |  |  |  |  |  |  |  |  | 
16 | CCN(CC)CCNC(=O)c1c(C)[nH]c(/C=C2\C(=O)Nc3ccc(F)cc32)c1C [sunitinib] |  | 99 |  |  |  |  | 79 | 97 |  |  |  |  |  |  |  |  |  |  |  | 
17 | COc1cc2c(Nc3ccc(Br)cc3F)ncnc2cc1OCC1CCN(C)CC1 [vandetanib] | -21 | 42 | 3.63 |  | 101 | -1.09 | -8 |  | -20 | 90 |  |  |  |  |  |  |  |  |  | 
